Like-named read-outs stand apart in the source and are kept apart here.
Key:
[1] = cited from earlier work
[2] = Time to resolution (TTR) of AEs after treatment interruption or discontinuation, pooled cohorts; assay type: in vivo, human
Procedure: Five of the most common AEs associated with axitinib treatment were assessed: diarrhea; fatigue; hypertension; nausea; and palmar-plantar erythrodysesthesia syndrome (PPE). Incidences of treatment-emergent AEs were taken from the full published articles for each study. AEs were classified and graded per the Common Terminology Criteria for Adverse Events version 3.0 or the National Cancer Institute Common Terminology Criteria for Adverse Events version 4.03, as used in each individual study. Incidences of AEs were reported for any grade and for grade ≥3.

[3] = Action taken for each occurrence of each AE by pooled treatment cohort; settings: occurrences of the AE
Procedure: To determine the TTR for each of the AEs, data were pooled for different treatment cohorts as follows: patients who received axitinib monotherapy (axitinib monotherapy cohort); patients who received axitinib in combination with IO therapy (axitinib+10 cohort); and patients in comparator treatment arms who received another TKI as monotherapy, i.e., sorafenib or sunitinib (other TKI cohort). TTR was calculated for all causality, treatment-emergent AEs. For each AE reported for patients in each pooled cohort, the action taken on presentation of the AE was documented. […] TTR was determined for AEs of any grade and for grade Data were descriptive only; no statistical comparisons were made.
Action taken was determined as ‘not applicable’ when the associated drug was already permanently discontinued when the AE occurred.

[4] = AEs of any grade, after treatment interruption or discontinuation
[5] = AEs of grade 3 or higher (FIG. 2)
[6] = drug already permanently discontinued

Q: Which half-life ([1]; in vivo) does the source give for `CNC(=O)c1cc(Oc2ccc(NC(=O)Nc3ccc(Cl)c(C(F)(F)F)c3)cc2)ccn1` [Sorafenib, sorafenib] here?
A: 25 to 48 h

Q: With `COc1cc2nccc(Oc3ccc(NC(=O)C4(C(=O)Nc5ccc(F)cc5)CC4)cc3)c2cc1OC` [cabozantinib] as the molecule, how does the half-life ([1]; in vivo) read?
A: ~99 h

Q: Which half-life ([1]; after a single 5 mg dose) does the source give for `CNC(=O)c1ccccc1Sc1ccc2c(/C=C/c3ccccn3)n[nH]c2c1` [Axitinib, axitinib] here?
A: 2.5 to 6.1 h

Q: And the “median (IQR) TTR, PPE” value [2, 4]?
A: 3 (3-5) days

Q: And the “median (IQR) TTR, diarrhea” value [2, 4]?
A: 3 (1-6) days

Q: What about the “median (IQR) TTR, hypertension” value [2, 4] of the same molecule?
A: 1 (1-3) days

Q: What about the “median (IQR) TTR, nausea” value [2, 4] of the same molecule?
A: 3 (1-7) days

Q: What about the “median (IQR) TTR, fatigue” value ([2]; AEs of any grade, after treatment interruption or discontinuation, listed as INLYTA monotherapy) of the same molecule?
A: 8 days

Q: What about the “median (IQR) TTR, fatigue” value ([2]; AEs of any grade, after treatment interruption or discontinuation, listed as axitinib monotherapy) of the same molecule?
A: 8 (4-16) days

Q: And the “median (IQR) TTR, PPE” value [2, 5]?
A: 3 (1-6) days

Q: What about the “median (IQR) TTR, diarrhea” value [2, 5] of the same molecule?
A: 3 (2-6) days

Q: What about the “median (IQR) TTR, hypertension” value [2, 5] of the same molecule?
A: 2 (1-8) days

Q: And the “median (IQR) TTR, nausea” value [2, 5]?
A: 4 (2-15) days

Q: What about the “median (IQR) TTR, fatigue” value ([2]; AEs of grade 3 or higher (FIG. 2), listed as INLYTA monotherapy) of the same molecule?
A: 8 days

Q: What about the “median (IQR) TTR, fatigue” value ([2]; AEs of grade 3 or higher (FIG. 2), listed as axitinib monotherapy) of the same molecule?
A: 8 (5-16) days

Q: And the “Median TTR for adverse reactions, except for fatigue (range of medians)” value ([2]; all grade)?
A: 1 to 3 days

Q: And the “Median TTR for adverse reactions, except for fatigue (range of medians)” value ([2]; grade 3 or higher)?
A: 2 to 4 days

Q: What about the “Diarrhea, action taken: Stopped temporarily and reduced” value [3] of the same molecule?
A: 0 n

Q: And the “Diarrhea, action taken: Unknown” value [3]?
A: 0 n

Q: What about the “Fatigue, action taken: Stopped temporarily and reduced” value [3] of the same molecule?
A: 0 n

Q: And the “Fatigue, action taken: Unknown” value [3]?
A: 0 n

Q: What about the “Hypertension, action taken: Stopped temporarily and reduced” value [3] of the same molecule?
A: 0 n

Q: And the “Hypertension, action taken: Unknown” value [3]?
A: 0 n

Q: What about the “Nausea, action taken: Permanently discontinued” value [3] of the same molecule?
A: 0 n

Q: What about the “Nausea, action taken: Stopped temporarily and reduced” value [3] of the same molecule?
A: 0 n

Q: What about the “Nausea, action taken: Unknown” value [3] of the same molecule?
A: 0 n

Q: What about the “PPE, action taken: Stopped temporarily and reduced” value [3] of the same molecule?
A: 0 n

Q: What about the “PPE, action taken: Unknown” value [3] of the same molecule?
A: 0 n

Q: And the “Diarrhea, action taken: Not applicable” value [3, 6]?
A: 0 n

Q: And the “Fatigue, action taken: Not applicable” value [3, 6]?
A: 0 n

Q: And the “Hypertension, action taken: Not applicable” value [3, 6]?
A: 0 n

Q: What about the “Nausea, action taken: Not applicable” value [3, 6] of the same molecule?
A: 0 n

Q: And the “PPE, action taken: Not applicable” value [3, 6]?
A: 0 n

Q: Which half-life ([1]; in vivo) does the source give for `CCN(CC)CCNC(=O)c1c(C)[nH]c(/C=C2\C(=O)Nc3ccc(F)cc32)c1C` [Sunitinib, sunitinib] here?
A: 40 to 60 h

Q: For `COc1cc2nccc(Oc3ccc(NC(=O)NC4CC4)c(Cl)c3)c2cc1C(N)=O` [lenvatinib], which half-life ([1]; in vivo) is on record?
A: ~28 h
